Results taken from patent US9000017B2, “Combinations of imazalil and silver compounds” (Janssen Pharmaceutica NV, priority 2006, dated 2015).
Where two headings read alike, the source gives them in different places.

Columns and labels:
Assay in all cases: Poison Plate Assay
Type in all cases: cell-based
Penicillium purpurogenum = Penicillium purpurogenum CBS 170.60, ppm total active ingredient, PDA, 22° C., two weeks
Experimental: (§1) [table] […] [table] MIC values (minimum inhibitory concentration in ppm total active ingredient) were noted and synergy was calculated using the Synergy Index method described by Kull et al. (Kull, […], and R. L. Mayer (1961) “Mixtures of quaternary ammonium compounds and long-chain fatty acids as antifungal agents” Applied Microbiology 9: 538-541; also see Zwart Voorspuij, A. J., and […] (1957) “Some aspects of the notions additivity, synergism and antagonism in the simultaneous activity of two antibacterial agents in vitro” Arch. intern. […] Steinberg, D. C. […] Petrocci, H. A. Green, and J. J. Merianos (1977) “Antimicrobial composition” U.S. Pat. […] MIC), • Qa is the concentration of compound A in ppm, in the mixture, which produced an end point (e.g. MIC), • QB is the concentration of compound B in ppm, acting alone, which produced an end point (e.g. MIC), • Qb is the concentration of compound B in ppm, in the mixture, which produced an end point (e.g. MIC). […] When the SI is equal to 1.0, additivity is indicated.

Pseudomonas aeruginosa = Pseudomonas aeruginosa NCIB 8295, ppm total active ingredient, Tryptose Agar, 27° C., one week
Experimental: as §1

Rhodoturula rubra = conditions: 336 h, Rhodoturula rubra B 52183, ppm total active ingredient, PDA, 22° C., two weeks, read-out: MIC-values in ppm (minimum inhibitory concentration)
Experimental: as §1

[1] = imazalil with silver perchlorate, label = % imazalil + % silver perchlorate

SMILES: C=CCOC(Cn1ccnc1)c1ccc(Cl)cc1Cl (stereo not drawn) [imazalil]
- MIC (Penicillium purpurogenum; CBS170, 336 h, imazalil with silver nitrate, label = % imazalil + % silver nitrate, read-out: MIC-values in ppm (minimum inhibitory concentration)): 158 µg/mL
- MIC-values in ppm (minimum inhibitory concentration) (Penicillium purpurogenum; [1]): 158 ppm
- MIC (Pseudomonas aeruginosa; NCIB8295, 168 h, imazalil with silver nitrate, label = % imazalil + % silver nitrate, read-out: MIC-values in ppm (minimum inhibitory concentration)): 667 µg/mL
- MIC-values in ppm (minimum inhibitory concentration) (Pseudomonas aeruginosa; [1]): 667 ppm
- MIC (Rhodoturula rubra; imazalil with silver nitrate, label = % imazalil + % silver nitrate): 158 µg/mL
- MIC (Rhodoturula rubra; [1]): 119 µg/mL
